“And” between values parts separate entries of the source, which are not always exact repeats. Equal entries are not always repeated. Where two headings read alike, the source gives them in different places.
Target: T1, GluN1/GluN2B NMDA receptors (UniProt P35439+Q01097)
T1 construct: expressed in transfected cells; host or cells: Xenopus laevis oocytes (nuclear cDNA injection)
Assay: TEVC electrophysiology on Xenopus oocytes expressing wt GluN1/GluN2B NMDARs
Assay type: cell-based, rat GluN1, mouse GluN2B
Settings: for inhibition of GluN1/GluN2B wt: 1 µM trans-OptoNAM-3 (dark); for IC50: 100 µM glutamate + glycine, Xenopus oocytes; for remaining activity at 1 µM: [OptoNAM-3] 1 µM; for remaining activity at 3 µM: [OptoNAM-3] 3 µM; for remaining activity at 5 µM: [OptoNAM-3] 5 µM; for remaining activity at 0.025 µM: [OptoNAM-3] 0.025 µM; for remaining activity at 0.05 µM: [OptoNAM-3] 0.05 µM; for remaining activity at 0.22 µM: [OptoNAM-3] 0.22 µM; for remaining activity at 30 µM: [OptoNAM-3] 30 µM; for Relative current for theoretical DRC 9% trans: theoretical for 350 nm PSS
Source text: The activity of OptoNAM-3 was functionally monitored by electrophysiology on Xenopus oocytes (see Methods). To assess the light-dependent effect, we tested the activities of the dark PSS (mostly trans) and the UV PSS (mostly cis, see above) separately. For each concentration, we prepared a solution divided into two samples: one in which the compound was kept in the dark for the duration of the experiment (dark PSS state); and the other that was preilluminated with either 350 or 365 nm light (350 or 365 nm PSS) and then kept away from the light for the duration of the experiment in order to avoid photoisomerization of the compounds by ambient light (see Methods). […] We generated dose–response curves of OptoNAM-3 dark and UV PSS on wild-type (wt) GluN1/GluN2B NMDA receptors (Figure 3A) in the presence of saturating concentrations of agonists (100 μM glutamate and glycine).
We used cDNA coding for rat GluN1–1a (named GluN1 herein) (GenBank: U08261.1), rat GluN2A (GenBank: D13211.1), mouse GluN2B (GenBank: D10651.2), rat GluA1 flop (GenBank: M36418.2), and rat Myc-GluA2(Q)-flip (GenBank: AF164344.1) cloned into pcDNA3-based expression plasmids. GluK2 (GenBank: Z11548.1) corresponds to the fully RNA-edited version.[80] The GluN2B-ΔNTD construct is from ref[45] and GluN2B–N615K is from ref[81]. Single mutants GluN2B-Q110G and GluN1-L135H were from ref[19]. The GluA2 cDNA contains a Myc tag ([…]) fused between the signal peptide and the N-terminus sequences, and the GluA2 subunit is […] for its Q/R/N site (GluA2(Q)) to allow permeation of homomeric GluA2 receptors.[2] cDNAs coding for rat GluN2C (GenBank: M91563.1) and GluN2D subunits (GenBank: L31611.1) were in prK5 plasmids.
Oocytes from Xenopus laevis were used for heterologous expression of recombinant NMDA receptors studied using a two-electrode voltage clamp (TEVC). Female Xenopus laevis were housed and ovary bags harvested according to the European Union guidelines (husbandry authorizations #C75–05–31 and #D75–05–31; project authorizations #05137.02; and Apafis #28867–2020121814485893). Fragments of ovary bags were also purchased from the “Centre de Ressources Biologiques Xenopes” (now TEFOR, Paris Saclay, France) and from the European Xenopus Resource Center (EXRC, Portsmouth, UK). Xenopus laevis oocytes were harvested and prepared as previously described in ref[82].
Expression of recombinant NMDA receptors was obtained by oocyte nuclear coinjection of 37 nL of a mixture of cDNAs (at 30 ng/μL) coding for GluN1–1a and various GluN2 subunits (ratio 1:1). The protocol in ref[43] was followed for the expression of GluN1/GluN2A/GluN2B triheteromers. The oocytes were transferred in 96-well plates filled with Barth solution (in mM: 88 NaCl, 1 KCl, 0.33 Ca(NO3)2, 0.41 CaCl2, 0.82 MgSO4, 2.4 NaHCO3, and 7.5 HEPES, pH adjusted to 7.3 with NaOH), supplemented with gentamicin ([…]) and 50 μM APV, a selective NMDA receptor antagonist. Plates were then stored at 18 °C for 24 h for GluN1/GluN2A expression and for 48––72 h for the expression of GluN1/Glu2B, GluN1/GluN2A/GluN2B, and mutants.
TEVC recordings were performed 1–3 days following injection. TEVC recordings were performed using an Oocyte Clamp amplifier OC-725 (Warner Instruments) and computer-controlled via a 1440A Digidata (Molecular Devices). Currents were sampled at 100 Hz and low-pass-filtered at 20 Hz using an 8-pole Bessel filter (900 Series, Frequency Devices Inc.).

[1] = GluN1/GluN2B wt, OptoNAM-3 350 nm PSS, read-out: Relative current (IOpto/I0)
[2] = GluN1/GluN2B wt, OptoNAM-3 365 nm PSS, read-out: Relative current (IOpto/I0)
[3] = GluN1/GluN2B wt, OptoNAM-3 dark PSS (trans), read-out: Relative current (IOpto/I0)

T1 sequence (Q01097 27-1482, other chains not shown): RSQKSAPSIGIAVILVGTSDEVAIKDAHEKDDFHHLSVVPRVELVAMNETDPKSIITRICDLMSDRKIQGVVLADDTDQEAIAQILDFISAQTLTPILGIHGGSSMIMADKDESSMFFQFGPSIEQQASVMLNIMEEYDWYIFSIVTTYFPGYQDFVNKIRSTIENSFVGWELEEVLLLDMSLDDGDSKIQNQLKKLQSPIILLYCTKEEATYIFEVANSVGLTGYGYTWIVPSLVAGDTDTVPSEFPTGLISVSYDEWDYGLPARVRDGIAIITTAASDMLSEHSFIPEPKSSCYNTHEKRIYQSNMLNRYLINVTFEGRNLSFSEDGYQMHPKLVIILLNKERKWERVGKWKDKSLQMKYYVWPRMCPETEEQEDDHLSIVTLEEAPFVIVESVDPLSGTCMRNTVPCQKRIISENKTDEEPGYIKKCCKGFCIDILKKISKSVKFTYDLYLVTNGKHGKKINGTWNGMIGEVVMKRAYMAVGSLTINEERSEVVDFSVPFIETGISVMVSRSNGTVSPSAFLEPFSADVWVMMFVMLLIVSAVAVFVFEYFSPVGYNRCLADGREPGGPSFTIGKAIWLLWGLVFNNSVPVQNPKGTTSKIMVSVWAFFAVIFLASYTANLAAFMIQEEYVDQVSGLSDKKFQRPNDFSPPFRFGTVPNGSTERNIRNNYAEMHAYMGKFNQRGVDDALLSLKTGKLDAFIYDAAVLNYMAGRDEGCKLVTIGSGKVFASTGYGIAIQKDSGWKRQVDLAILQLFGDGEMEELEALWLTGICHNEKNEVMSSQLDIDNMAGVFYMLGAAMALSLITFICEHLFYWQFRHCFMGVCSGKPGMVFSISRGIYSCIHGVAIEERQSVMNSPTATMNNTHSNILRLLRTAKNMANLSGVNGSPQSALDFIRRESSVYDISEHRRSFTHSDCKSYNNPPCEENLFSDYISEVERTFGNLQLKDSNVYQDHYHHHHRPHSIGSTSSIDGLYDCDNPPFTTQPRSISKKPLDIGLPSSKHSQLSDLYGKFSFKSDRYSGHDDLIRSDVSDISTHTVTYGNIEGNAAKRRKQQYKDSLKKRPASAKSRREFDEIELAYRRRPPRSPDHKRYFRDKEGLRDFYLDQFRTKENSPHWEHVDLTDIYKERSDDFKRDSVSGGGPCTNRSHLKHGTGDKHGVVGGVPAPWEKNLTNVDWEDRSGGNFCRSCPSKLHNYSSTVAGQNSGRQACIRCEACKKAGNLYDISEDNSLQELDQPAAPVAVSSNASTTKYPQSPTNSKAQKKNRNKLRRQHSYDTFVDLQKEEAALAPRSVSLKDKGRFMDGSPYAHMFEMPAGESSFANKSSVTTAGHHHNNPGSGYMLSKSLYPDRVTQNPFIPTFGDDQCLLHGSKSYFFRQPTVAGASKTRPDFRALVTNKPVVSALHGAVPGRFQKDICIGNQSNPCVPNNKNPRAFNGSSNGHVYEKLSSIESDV

c1ccc(/N=N/c2ccc(CCNc3ccncc3)cc2)cc1 [OptoNAM-3, (E)-N-(4-(Phenyldiazenyl)phenethyl)pyridin-4-amine]
Relative current for theoretical 100% cis (0.025 µM, calculated from the 365 nm PSS curve): 0.953
Relative current for theoretical 100% cis (0.050 µM, calculated from the 365 nm PSS curve): 0.945
Relative current for theoretical 100% cis (0.125 µM, calculated from the 350 nm PSS curve): 0.949
Relative current for theoretical 100% cis (0.125 µM, calculated from the 365 nm PSS curve): 0.988
Relative current for theoretical 100% cis (0.220 µM, calculated from the 365 nm PSS curve): 1.000
Relative current for theoretical 100% cis (0.300 µM, calculated from the 350 nm PSS curve): 1.005
Relative current for theoretical 100% cis (0.300 µM, calculated from the 365 nm PSS curve): 0.993
Relative current for theoretical 100% cis (0.470 µM, calculated from the 350 nm PSS curve): 1.025
Relative current for theoretical 100% cis (0.500 µM, calculated from the 365 nm PSS curve): 0.891
inhibition of GluN1/GluN2B wt: 69.305%
inhibition of GluN1/GluN2B wt (listed as trans-OptoNAM-3): 69% ± 2%
Relative current for theoretical 100% cis (1.000 µM, calculated from the 350 nm PSS curve): 1.085
Relative current for theoretical 100% cis (1.000 µM, calculated from the 365 nm PSS curve): 0.988
Relative current for theoretical 100% cis (2.000 µM, calculated from the 350 nm PSS curve): 1.000
Relative current for theoretical 100% cis (2.000 µM, calculated from the 365 nm PSS curve): 0.933
Relative current for theoretical 100% cis (3.000 µM, calculated from the 350 nm PSS curve): 1.043
Relative current for theoretical 100% cis (3.000 µM, calculated from the 365 nm PSS curve): 0.959
Relative current for theoretical 100% cis (5.000 µM, calculated from the 350 nm PSS curve): 0.994
Relative current for theoretical 100% cis (5.000 µM, calculated from the 365 nm PSS curve): 0.960
inhibition at 10 µM (10 µM OptoNAM-3 365 nm PSS, construct GluN1/GluN2B, read-out: Inhibition (%)): 68%
Inhibition, individual values (10 µM OptoNAM-3 dark PSS (trans) as headed, GluN1/GluN2B, single cells, second block): 0.6438 and 0.6778 and 0.6833 and 0.7763
inhibition at 10 µM (10 µM OptoNAM-3 dark PSS (trans) as headed, GluN1/GluN2B, single cells, second block, read-out: Inhibition, individual values): 63.8%
Inhibition, individual values (10 µM OptoNAM-3 dark PSS (trans), GluN1/GluN2B, single cells, first block): 0.9137 and 0.9546 and 0.9747
inhibition at 10 µM (10 µM OptoNAM-3 dark PSS (trans), GluN1/GluN2B, single cells, first block, read-out: Inhibition, individual values): 92.7%
inhibition at 10 µM (10 µM OptoNAM-3 dark PSS (trans), construct GluN1/GluN2B, read-out: Inhibition (%)): 94%
Relative current for theoretical 100% cis (30.000 µM, calculated from the 365 nm PSS curve): 0.961
IC50 (350 nm PSS, read-out: IC50 on GluN1/GluN2B receptors, preilluminated with 350 nm): 4.4 µM and 4.38 µM
IC50 (365 nm PSS, read-out: IC50 on GluN1/GluN2B receptors, preilluminated with 365 nm): 1.7 µM
remaining activity at 0.125 µM (GluN1/GluN2B wt, OptoNAM-3 350 nm PSS, [OptoNAM-3] 0.125 µM, read-out: Relative current (IOpto/I0)): 90.7%
remaining activity at 0.3 µM (GluN1/GluN2B wt, OptoNAM-3 350 nm PSS, [OptoNAM-3] 0.3 µM, read-out: Relative current (IOpto/I0)): 91.8%
remaining activity at 0.47 µM (GluN1/GluN2B wt, OptoNAM-3 350 nm PSS, [OptoNAM-3] 0.47 µM, read-out: Relative current (IOpto/I0)): 90%
remaining activity at 1 µM [1]: 86%
remaining activity at 2 µM (GluN1/GluN2B wt, OptoNAM-3 350 nm PSS, [OptoNAM-3] 2 µM, read-out: Relative current (IOpto/I0)): 65.6%
remaining activity at 3 µM [1]: 61.3%
remaining activity at 5 µM [1]: 44.6%
remaining activity at 0.025 µM [2]: 93.3%
remaining activity at 0.05 µM [2]: 91%
remaining activity at 0.125 µM (GluN1/GluN2B wt, OptoNAM-3 365 nm PSS, [OptoNAM-3] 0.125 µM, read-out: Relative current (IOpto/I0)): 91.2%
remaining activity at 0.22 µM [2]: 88%
remaining activity at 0.3 µM (GluN1/GluN2B wt, OptoNAM-3 365 nm PSS, [OptoNAM-3] 0.3 µM, read-out: Relative current (IOpto/I0)): 84.1%
remaining activity at 0.5 µM (GluN1/GluN2B wt, OptoNAM-3 365 nm PSS, [OptoNAM-3] 0.5 µM, read-out: Relative current (IOpto/I0)): 66.6%
remaining activity at 1 µM [2]: 64.4%
remaining activity at 2 µM (GluN1/GluN2B wt, OptoNAM-3 365 nm PSS, [OptoNAM-3] 2 µM, read-out: Relative current (IOpto/I0)): 43.3%
remaining activity at 3 µM [2]: 37.5%
remaining activity at 5 µM [2]: 26.7%
remaining activity at 30 µM [2]: 3.4%
remaining activity at 0.025 µM [3]: 88.7%
remaining activity at 0.05 µM [3]: 82.7%
remaining activity at 0.125 µM (GluN1/GluN2B wt, OptoNAM-3 dark PSS (trans), [OptoNAM-3] 0.125 µM, read-out: Relative current (IOpto/I0)): 75.8%
remaining activity at 0.22 µM [3]: 59.2%
remaining activity at 0.3 µM (GluN1/GluN2B wt, OptoNAM-3 dark PSS (trans), [OptoNAM-3] 0.3 µM (Sup. Fig. 3A/B/E), read-out: Relative current (IOpto/I0)): 58.1%
remaining activity at 1 µM [3]: 30.7%
remaining activity at 2 µM (GluN1/GluN2B wt, OptoNAM-3 dark PSS (trans), [OptoNAM-3] 2 µM (Sup. Fig. 3A/B/E), read-out: Relative current (IOpto/I0)): 14.1%
remaining activity at 3 µM [3]: 9.8%
remaining activity at 5 µM [3]: 9.2%
remaining activity at 30 µM [3]: 0.423%
Relative current for theoretical DRC 9% trans (GluN1/GluN2B wt, [OptoNAM-3] 0.125 µM): 0.958
Relative current for theoretical DRC 9% trans (GluN1/GluN2B wt, [OptoNAM-3] 0.3 µM): 0.913
Relative current for theoretical DRC 9% trans (GluN1/GluN2B wt, [OptoNAM-3] 0.47 µM): 0.875
